Assay results: US9409952B2, “Peptide-compound cyclization method” (Chugai Seiyaku Kabushiki Kaisha, priority 2011, dated 2016)
Starred links: 1 amine or outer side, 2 acyl side, 3 side chain; linkers in the order of their positions; H or OH if unused. Positions of bridges follow the written chain, without caps; N, C: chain ends. Non-standard residues stand in square brackets, D forms with d. Residues, ends and D or L forms follow the SMILES beside them. *: point of attachment. NMeF = CN[C@@H](Cc1ccccc1)C(=O)O; NMeβAla = CN(CCC(=O)[*:2])[*:1]; NMeL = CN[C@@H](CC(C)C)C(=O)O; NMeV = CN[C@H](C(=O)O)C(C)C; NMeA = CN[C@@H](C)C(=O)O; Piperidide = C1CCN(*)CC1; dNMeA = CN[C@H](C)C(=O)O; Sar = CNCC(=O)O; tBu = CC(C)(C)*

Tests used:
[1] = PAMPA (parallel artificial membrane permeability assay); assay type: in vitro ADME; conditions: PAMPA; membrane permeation rate (Pe); 50 mM MOPSO buffer pH 6.5 with 5.0% glycocholic acid, 37° C., 18 hours; read-out: iPAMPA Pe
Procedure, shortened: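 Artificial membrane was 10% (w/v) egg lecithin plus 0.5% (w/v) cholesterol in dodecane on a PVDF filter. A 10 mM DMSO stock was added at 0.5% (v/v) to donor buffer (50 mM MOPSO, pH 6.5, 5.0% glycocholic acid). After 18 h at 37 °C, LC/MS or LC/UV gave donor and acceptor levels for Pe.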

[2] = Metabolic stability in human hepatic microsome; assay type: in vitro ADME; conditions: microsomes, pH 7.4; human hepatic microsome, NADPH(+); read-out: CL NADPH(+)

Structure (SMILES) | Papp at 18 hours, 50 µM [1] [×10⁻⁶ cm/s] | microsomal CLint at 1 uM [2] [µL/min/mg]
CC(C)C[C@H]1C(=O)N[C@H](C(=O)N2CCCCC2)CC(=O)N(C)[C@@H](C)C(=O)N(C)[C@@H](Cc2ccccc2)C(=O)N(C)[C@@H](C)C(=O)N[C@@H]([C@@H](C)O)C(=O)N(C)[C@@H](C)C(=O)N[C@@H](Cc2ccccc2)C(=O)N(C)[C@@H](C)C(=O)N[C@@H](C)C(=O)N(C)[C@@H](C)C(=O)N1C [DP-422] ([NMeA][NMeF][NMeA]T[NMeA]F[NMeA]A[NMeA][NMeL]D-Piperidide; lactam N-11) | 3.8 | 26
CC[C@H](C)[C@@H]1NC(=O)[C@H](Cc2ccccc2)NC(=O)[C@H]([C@@H](C)O)NC(=O)CCN(C)C(=O)C[C@@H](C(=O)N2CCCCC2)NC(=O)[C@H](Cc2ccccc2)NC(=O)[C@H](Cc2ccccc2)NC(=O)CNC(=O)[C@H](CC(C)C)N(C)C(=O)[C@H](CC(C)C)NC1=O [DP-423] ([NMeβAla]TFIL[NMeL]GFFD-Piperidide; lactam N-10) | 15 | 110
CC[C@H](C)[C@@H]1NC(=O)[C@H](Cc2ccccc2)NC(=O)[C@H]([C@@H](C)O)NC(=O)[C@H](CC(C)C)NC(=O)CCN(C)C(=O)C[C@@H](C(=O)N2CCCCC2)NC(=O)[C@H](CC(C)C)NC(=O)[C@H](Cc2ccccc2)N(C)C(=O)[C@H](Cc2ccccc2)NC(=O)[C@H](CC(C)C)NC1=O [DP-424] ([NMeβAla]LTFILF[NMeF]LD-Piperidide; lactam N-10) | 46 | 135
CC[C@H](C)[C@@H]1NC(=O)CCN(C)C(=O)C[C@@H](C(=O)N2CCCCC2)NC(=O)[C@H](Cc2ccccc2)N(C)C(=O)[C@H](CC(C)C)NC(=O)[C@H](CC(C)C)N(C)C(=O)[C@H](CC(C)C)NC(=O)[C@H]([C@@H](C)O)NC(=O)[C@H](Cc2ccccc2)NC(=O)[C@H](C(C)C)N(C)C1=O [DP-425] ([NMeβAla]I[NMeV]FTL[NMeL]L[NMeF]D-Piperidide; lactam N-10) | 27 | 150
CC(C)C[C@H]1C(=O)N[C@@H](Cc2ccccc2)C(=O)N[C@@H](COC(C)(C)C)C(=O)N(C)[C@@H](CC(C)C)C(=O)N(C)[C@@H](CC(C)C)C(=O)N[C@@H]([C@@H](C)O)C(=O)N[C@H](C(=O)N2CCCCC2)CC(=O)N(C)CCC(=O)N(C)[C@@H](Cc2ccccc2)C(=O)NCC(=O)N1C [DP-426] ([NMeβAla][NMeF]G[NMeL]FS(tBu)[NMeL][NMeL]TD-Piperidide; lactam N-10) | 36 | 546
CC[C@H](C)[C@@H]1NC(=O)[C@H](Cc2ccccc2)N(C)C(=O)[C@H](CC(C)C)N(C)C(=O)[C@H](Cc2ccccc2)NC(=O)[C@H](C)N(C)C(=O)[C@H]([C@@H](C)O)NC(=O)CCN(C)C(=O)C[C@@H](C(=O)N2CCCCC2)NC(=O)[C@H](CC(C)C)N(C)C(=O)[C@H](C(C)C)N(C)C1=O [DP-427] ([NMeβAla]T[NMeA]F[NMeL][NMeF]I[NMeV][NMeL]D-Piperidide; lactam N-10) | 37 | 141
CC(C)C[C@H]1C(=O)N(C)[C@@H](CC(C)C)C(=O)N(C)[C@@H](CC(C)C)C(=O)N[C@H](C(=O)N2CCCCC2)CC(=O)N(C)CCC(=O)N(C)[C@@H](Cc2ccccc2)C(=O)N(C)[C@@H](CC(C)C)C(=O)N[C@@H]([C@@H](C)O)C(=O)N(C)[C@@H](C)C(=O)NCC(=O)N1C [DP-428] ([NMeβAla][NMeF][NMeL]T[NMeA]G[NMeL][NMeL][NMeL]D-Piperidide; lactam N-10) | 26 | 77
CC[C@H](C)[C@@H]1NC(=O)[C@H](CC(C)C)N(C)C(=O)[C@H](CC(C)C)N(C)C(=O)CCN(C)C(=O)C[C@@H](C(=O)N2CCCCC2)NC(=O)[C@H](CC(C)C)N(C)C(=O)[C@H](CC(C)C)N(C)C(=O)[C@H](Cc2ccccc2)N(C)C(=O)[C@H]([C@@H](C)O)NC(=O)[C@H](Cc2ccccc2)N(C)C1=O [DP-429] ([NMeβAla][NMeL][NMeL]I[NMeF]T[NMeF][NMeL][NMeL]D-Piperidide; lactam N-10) | 15 | 115
CC[C@H](C)[C@@H]1NC(=O)[C@H](CC(C)C)NC(=O)[C@H](Cc2ccccc2)NC(=O)CN(C)C(=O)[C@H](CC(C)C)NC(=O)[C@H](Cc2ccccc2)NC(=O)[C@@H](C)NC(=O)C[C@@H](C(=O)N2CCCCC2)NC(=O)[C@H]([C@@H](C)O)NC(=O)[C@H](Cc2ccccc2)NC1=O [DP-430] ([dA]FL[Sar]FLIFTD-Piperidide; lactam N-10) | 32 | 96
CC[C@H](C)[C@@H]1NC(=O)[C@H](CC(C)C)N(C)C(=O)[C@H](CC(C)C)NC(=O)[C@H](Cc2ccccc2)NC(=O)[C@H]([C@@H](C)O)NC(=O)[C@H](Cc2ccccc2)NC(=O)[C@@H](C)N(C)C(=O)C[C@@H](C(=O)N2CCCCC2)NC(=O)CNC(=O)[C@H](Cc2ccccc2)NC1=O [DP-431] ([dNMeA]FTFL[NMeL]IFGD-Piperidide; lactam N-10) | 34 | 239
CC[C@H](C)[C@@H]1NC(=O)[C@H](CC(C)C)N(C)C(=O)[C@H](Cc2ccccc2)NC(=O)[C@H]([C@@H](C)O)NC(=O)[C@H](CC(C)C)N(C)C(=O)[C@H](C(C)C)N(C)C(=O)[C@@H](C)N(C)C(=O)C[C@@H](C(=O)N2CCCCC2)NC(=O)[C@H](CC(C)C)NC(=O)[C@H](Cc2ccccc2)N(C)C1=O [DP-432] ([dNMeA][NMeV][NMeL]TF[NMeL]I[NMeF]LD-Piperidide; lactam N-10) | 26 | 396
CC[C@H](C)[C@@H]1NC(=O)CN(C)C(=O)[C@H]([C@@H](C)O)NC(=O)[C@H](C(C)C)N(C)C(=O)[C@@H](C)N(C)C(=O)C[C@@H](C(=O)N2CCCCC2)NC(=O)[C@H](CC(C)C)NC(=O)[C@H](Cc2ccccc2)N(C)C(=O)[C@H](CC(C)C)N(C)C(=O)[C@H](C)N(C)C1=O [DP-433] ([dNMeA][NMeV]T[Sar]I[NMeA][NMeL][NMeF]LD-Piperidide; lactam N-10) | 45 | 35
CC[C@H](C)[C@@H]1NC(=O)[C@H](Cc2ccccc2)N(C)C(=O)[C@H](CC(C)C)N(C)C(=O)[C@H](Cc2ccccc2)NC(=O)[C@H](C)N(C)C(=O)[C@H]([C@@H](C)O)NC(=O)[C@@H](C)N(C)C(=O)C[C@@H](C(=O)N2CCCCC2)NC(=O)[C@H](CC(C)C)N(C)C(=O)[C@H](C(C)C)N(C)C1=O [DP-434] ([dNMeA]T[NMeA]F[NMeL][NMeF]I[NMeV][NMeL]D-Piperidide; lactam N-10) | 38 | 166
CC(C)C[C@H]1C(=O)N(C)[C@@H](C)C(=O)N(C)[C@@H](CC(C)C)C(=O)N[C@H](C(=O)N2CCCCC2)CC(=O)N(C)[C@H](C)C(=O)N(C)[C@@H](Cc2ccccc2)C(=O)N[C@@H]([C@@H](C)O)C(=O)N(C)[C@@H](C)C(=O)N(C)[C@@H](CC(C)C)C(=O)NCC(=O)N1C [DP-435] ([dNMeA][NMeF]T[NMeA][NMeL]G[NMeL][NMeA][NMeL]D-Piperidide; lactam N-10) | 16 | 41
CC[C@H](C)[C@@H]1NC(=O)[C@H](Cc2ccccc2)NC(=O)[C@H](CC(C)C)NC(=O)CNC(=O)[C@H]([C@@H](C)O)NC(=O)[C@H](Cc2ccccc2)NC(=O)[C@H](C)N(C)C(=O)C[C@@H](C(=O)N2CCCCC2)NC(=O)[C@H](Cc2ccccc2)NC(=O)[C@H](CC(C)C)N(C)C1=O [DP-436] ([NMeA]FTGLFI[NMeL]FD-Piperidide; lactam N-10) | 45 | 142
CC(C)C[C@@H]1NC(=O)[C@H](Cc2ccccc2)N(C)C(=O)CNC(=O)[C@H]([C@@H](C)O)NC(=O)[C@H](CC(C)C)N(C)C(=O)[C@H](COC(C)(C)C)NC(=O)[C@H](C)N(C)C(=O)C[C@@H](C(=O)N2CCCCC2)NC(=O)[C@H](Cc2ccccc2)NC(=O)[C@H](CC(C)C)N(C)C1=O [DP-437] ([NMeA]S(tBu)[NMeL]TG[NMeF]L[NMeL]FD-Piperidide; lactam N-10) | 37 | 265
CC(C)C[C@H]1C(=O)N(C)[C@@H](Cc2ccccc2)C(=O)N[C@@H](Cc2ccccc2)C(=O)N(C)[C@@H](C)C(=O)N(C)[C@@H](C(C)C)C(=O)N[C@@H]([C@@H](C)O)C(=O)N[C@H](C(=O)N2CCCCC2)CC(=O)N(C)[C@@H](C)C(=O)N[C@@H](COC(C)(C)C)C(=O)NCC(=O)N1C [DP-438] ([NMeA]S(tBu)G[NMeL][NMeF]F[NMeA][NMeV]TD-Piperidide; lactam N-10) | 38 | 155
CC[C@H](C)[C@@H]1NC(=O)[C@H](CC(C)C)N(C)C(=O)[C@H](CC(C)C)N(C)C(=O)[C@H](C)N(C)C(=O)[C@H]([C@@H](C)O)NC(=O)[C@H](C(C)C)N(C)C(=O)[C@H](Cc2ccccc2)NC(=O)CN(C)C(=O)[C@H](C)N(C)C(=O)C[C@@H](C(=O)N2CCCCC2)NC1=O [DP-439] ([NMeA][Sar]F[NMeV]T[NMeA][NMeL][NMeL]ID-Piperidide; lactam N-10) | 34 | 139
CC[C@H](C)[C@@H]1NC(=O)CN(C)C(=O)[C@H]([C@@H](C)O)NC(=O)[C@H](CC(C)C)N(C)C(=O)[C@H](Cc2ccccc2)N(C)C(=O)CCN(C)C(=O)C[C@@H](C(=O)N2CCCCC2)NC(=O)[C@H](CC(C)C)N(C)C(=O)[C@H](CC(C)C)N(C)C1=O [DP-440] ([NMeβAla][NMeF][NMeL]T[Sar]I[NMeL][NMeL]D-Piperidide; lactam N-9) | 29 | 124
CC(C)C[C@@H]1NC(=O)[C@H](Cc2ccccc2)N(C)C(=O)[C@H](CC(C)C)N(C)C(=O)[C@@H](C)N(C)C(=O)C[C@@H](C(=O)N2CCCCC2)NC(=O)[C@H](CC(C)C)N(C)C(=O)[C@H](Cc2ccccc2)N(C)C(=O)[C@H]([C@@H](C)O)NC(=O)[C@H](Cc2ccccc2)N(C)C1=O [DP-441] ([dNMeA][NMeL][NMeF]L[NMeF]T[NMeF][NMeL]D-Piperidide; lactam N-9) | 37 | 123
